Columns and labels:
rat [1] = test: Mustard oil-induced acute neurogenic inflammation in the paw skin of the rat (Evans blue leakage); type: in vivo; details: 100 μg/kg p.o. 60 min before 1% mustard oil; vs vehicle-treated control; listed as BST-1693
Protocol: Deep anaesthesia was performed with sodium-thiopental (50 mg/kg i.p.). Both hindlegs of the rats were acutely denervated (the sciatic and the saphenous nerves were cut 30 min before the induction of inflammation) to avoid the influence of reflex mechanisms. Inflammation in the dorsal skin of the hindpaws was evoked by topical application of 1% mustard oil dissolved in paraffin oil. This compound selectively activates capsaicin-sensitive peptidergic fibres through the TRPA1 ion channel, therefore induces acute inflammatory reaction with exclusively neurogenic mechanisms via the release of pro-inflammatory sensory neuropeptides, such as substance P and CGRP. Extravasation of plasma albumin was measured by the Evans blue leakage method (see FIG. 2). Evans blue (50 mg/kg) which binds to plasma albumine, was injected i.v. and neurogenic inflammation was induced 5 min later. […] The amount of the accumulated Evans blue, which quantitatively correlates with the intensity of plasma extravasation, was expressed as μg dye/g wet skin (Helyes et at, 1997, 2001, 2006; Borzsei et al., 2008). […]
Extravasation of plasma albumin in the dorsal skin of the hindpaws was measured by the Evans blue leakage method. […] The skin of the hindpaws was removed, their weight was measured and the extravasated dye was extracted with formamide at room temperature during 72 h for photometric determination at 620 nm. […]

[2] = Analgesic and anti-inflammatory models shown within the examples; details: in vivo
sst4 receptor = molecular target: T1, sst4 receptor (Homo sapiens, UniProt P31391); test: Somatostatin sst4 receptor-coupled G-protein activation assay ([35S]GTPγS binding); type: biochemical; details: 100 nM concentration; membrane fractions of CHO cells stably expressing the sst4 receptor; percentage over specific binding in absence of agonists
T1 construct: expressed in transfected cells
T1 sequence (P31391 whole entry): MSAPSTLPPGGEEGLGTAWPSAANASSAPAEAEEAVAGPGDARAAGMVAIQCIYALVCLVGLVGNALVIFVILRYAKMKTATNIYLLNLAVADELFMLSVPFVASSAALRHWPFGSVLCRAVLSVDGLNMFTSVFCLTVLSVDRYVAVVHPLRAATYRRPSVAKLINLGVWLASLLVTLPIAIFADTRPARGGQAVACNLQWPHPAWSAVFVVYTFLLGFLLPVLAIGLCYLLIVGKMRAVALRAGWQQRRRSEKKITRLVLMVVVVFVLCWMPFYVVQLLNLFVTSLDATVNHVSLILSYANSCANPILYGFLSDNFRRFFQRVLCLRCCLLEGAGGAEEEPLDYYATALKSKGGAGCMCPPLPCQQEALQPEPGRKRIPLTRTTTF
From the text: [^35S]GTPγS binding assay is a functional test determining agonist-induced and receptor-mediated G-protein activation which is based on the increase in guanine nucleotide exchange at G-proteins upon agonist stimulation. The interaction of a G protein-coupled receptor (GPCR) with the G protein is the first step in the transduction of the receptor binding signal to the activation of the second-messenger systems. We measured the level of [^35S]-GTPγS bound to the α subunit of G proteins and determined the efficacy of the compounds. Compounds which elicited 200% [^35S]GTPγS binding in nanomolar concentration were considered effective agonist. The examined compounds were added into the medium in 1 nM, 10 nM, 100 nM 1 μM and 10 μM concentrations.
Membrane fractions were prepared from CHO cells stably expressing the sst4 receptor in Tris-EGTA buffer (50 mM Tris-HCl, 1 mM EGTA, 3 mM MgCl2, 100 mM NaCl, pH 7.4). These membrane fractions (˜10 μg of protein/sample) were incubated at 30° C. for 60 min in the same Tris-EGTA buffer containing [^35S]GTPγS (0.05 nM) and increasing concentrations (10^−9 to 10^−5 M) of test compounds in the presence of 30 μM GDP in a final volume of 500 μl. Non-specific binding was determined in the presence of 10 μM unlabelled GTPγS. Total binding was measured in the absence of test compounds. To calculate the specific binding, non-specific binding was subtracted from total binding. The reaction was terminated by filtrating the samples through Whatman GF/B glass fiber filters. Using 48-well Slot Blot Manifold from Cleaver Scientific filters were washed three times with ice-cold 50 mM Tris-HCl buffer (pH 7.4). After drying for 60 min at 37° C., radioactivity was measured in scintillation liquid in a Packard Tri-Carb 2800 TR scintillation counter. Test compound-induced G-protein stimulation was given as percentage over the specific [^35S]GTPγS binding observed in the absence of agonists.

rat [3] = test: Plantar incision-induced heat allodynia (increasing temperature water bath), postoperative pain model; type: in vivo; details: 100 μg/kg p.o., measured 60 min later; one day after plantar incision
Protocol: Rats were anaesthesized with sodium-pentobarbital (Euthasol, 40 mg/kg i.p.) and a 1 cm longitudinal incision was made through the skin, fascia and muscle of the plantar aspect of the hindpaw. Significant decrease of both the thermonociceptive and mechanonociceptive thresholds (heat and mechanical allodynia) of the paw develops 1 day after this procedure.
One hundred and forty five (145) female Wistar rats (150-250 g) kept in the Animal House of the University of Pecs in a temperature-controlled room provided with a 12-hour light-dark cycle, standard rat chow and water ad libitum were used in this experimental series. […] Touch sensitivity was measured with a dynamic plantar aesthesiometer (DPA) and the thermonociceptive threshold was determined with an increasing temperature water-bath (ITWB) on the same rats (see below). […] Test compounds were administered p.o. and post-dose touch sensitivity and thermonociceptive thresholds were measured 60 min later. […]
b) The thermonociceptive threshold of the paw was determined with an increasing temperature water bath developed and validated in our laboratories in cooperation with Experimetria Ltd. (Budapest, Hungary). […] The controlling unit has a 30° C. starting temperature, heating rate and a display continuously showing the actual bath temperature measured by a thermocouple at the middle position 35 mm below the water level. […]

## Cc1c(C)n(Cc2ccccc2)c2ncnc(NCCc3ccc(N)cc3)c12 [Example 1, [2-(4-Amino-phenyl)-ethyl]-(7-benzyl-5,6-dimethyl-7H-pyrrolo[2,3-d]pyrimidin-4-yl)-amine]
Rat [1]
  inhibition of acute neurogenic inflammatory response (Evans blue accumulation in hindpaw skin): 70.4%
other
  melting point: 150.7 to 151.8 °C

## COc1ccc(CCNc2ncnc3c2cc(C)n3Cc2ccc(OC)c(OC)c2)cc1OC [compound (a)]
[2]
  activity in the analgesic and anti-inflammatory models: totally inactive

## CC(=O)Nc1ccc(CCNc2ncnc3c2c(C)c(C)n3Cc2ccccc2)cc1 [Example 3, N-{4-[2-(7-Benzyl-5,6-dimethyl-7H-pyrrolo[2,3-d]pyrimidin-4-ylamino)-ethyl]-phenyl}-acetamide]
other
  melting point: 186.9 to 187.7 °C
sst4 receptor
  [35S]GTPγS binding (G-protein activation): 210.67%
Rat [3]
  effectiveness in inhibiting the decrease of the heat threshold: 18.2%

From patent publication US10344032B2, “Agents for treating neurogenic inflammation and neuropathic hyperalgesia related disorders” (PÉCSI TUDOMÁNYEGYETEM, priority 2014, dated 2019)
